According to ChEMBL document CHEMBL1201862, “PubChem BioAssay data set” (2004):
The source made the active and inactive calls.

Tests used:
[1] = cells
[2] = cells; conditions: HEK293
[3] = HepG2 cell cytotoxicity, dose response, cytotoxicity control, ATP luminescence, cherry-pick, activator set 2 (AID 1053143); assay type: functional, cell-based
[4] = target: Nonstructural protein 1 (Influenza A virus, UniProt Q194T2); assay type: functional, Influenza A virus (A/California/07/2009(H1N1))
[5] = target: Matrix metalloproteinase-14 (Homo sapiens, UniProt P50281); test: Dose Response confirmation of uHTS hits for a small molecule inhibitors of MT1-MMP activation in a fluorescence assay set 1.; assay type: functional
[6] = human group III sPLA2 inhibitors, dose response, biochemical, QFRET, IC50 (AID 743457);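 further: green fluorescence rise as the enzyme cleaves BODIPY PC-A2 in liposomes; potency for inhibition of the enzyme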
[7] = Shn3 3'UTR reporter inhibitors, dose response, cell-based, Clone20 osteoblasts, firefly luciferase, cherry-picked (AID 624132); assay type: functional;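 further: firefly luciferase luminescence from reporter carrying the Shn3 3'UTR in osteoblasts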
[8] = HepG2 cell cytotoxicity, dose response, cytotoxicity control for Shn3 inhibitor project, CellTiter-Glo, cherry-picked (AID 624134); assay type: functional, cell-based
[9] = control 3'UTR Renilla luciferase suppression, dose response, counter-screen for Shn3 inhibitor project, cell-based, Clone20-Shn3RL, cherry-picked (AID 624133); assay type: functional
[10] = reduction of Shn3 3'UTR firefly luciferase signal, dose response, Schnurri-3 inhibitor project, cell-based, Clone20 osteoblasts, cherry-pick, set 2 (AID 720490); assay type: functional;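 further: actives lower the luminescence signal as inhibitors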
[11] = target: Paired box protein Pax-8 (Homo sapiens, UniProt Q06710); test: inhibitors of PAX8-driven TPO luciferase reporter, dose response, RMG-I cells, cherry-pick (AID 687027); assay type: functional, cell-based;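 further: luciferase reporter driven by Pax8 target thyroperoxidase promoter measured by SteadyGlo luminescence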
[12] = A2780 ovarian cancer cell cytotoxicity, dose response, cytotoxicity control, plate reader, dry powder samples (AID 743046); assay type: functional, cell-based
[13] = cytotoxicity in OVCAR8 ovarian cancer cells, dose response, PAX8 project, cell-based, plate reader, dry powder samples (AID 743197); assay type: functional; conditions: OVCAR-8
[14] = HepG2 hepatoma cell cytotoxicity, dose response, cytotoxicity control, CellTiter-Glo luminescence, dry powder, set 3 (AID 720594); assay type: functional, cell-based
[15] = HEK293T cell cytotoxicity, dose response, cytotoxicity control, CellTiter-Glo luminescence, dry powder, set 2 (AID 720595); assay type: functional, cell-based; conditions: HEK293
[16] = AlphaScreen signal interference by compounds, dose response, artefact control for ARNT/TACC3 disruptor project, biochemical, dual-tagged ARNT, dry powder (AID 720564)
[17] = target: Fructose-bisphosphate aldolase (Mycobacterium tuberculosis, UniProt P9WQA3); test: Fluorescence-based biochemical high throughput dose response assay for inhibitors of the fructose-bisphosphate aldolase (FBA) of M. tuberculosis.; assay type: functional
[18] = system: Vero; test: Vero cell toxicity, dose response, cytotoxicity control, plate reader, cherry-pick samples (AID 687020); assay type: functional, cell-based; conditions: Chlorocebus sabaeus
[19] = system: A549; test: A549 cell toxicity, dose response, cytotoxicity control, plate reader, cherry-pick samples (AID 687028); assay type: functional, cell-based; conditions: Homo sapiens
[20] = HEK293T cytotoxicity, dose response, cytotoxicity control for miR-122 modulator project, cell-based, inhibitor set, cherry-pick, set 2 (AID 720697); assay type: functional
[21] = IOSE-T80 ovarian epithelial cell cytotoxicity, dose response, cytotoxicity control for PAX8 inhibitor project, plate reader, dry powder samples (AID 743045); assay type: functional, cell-based
[22] = NIH:OVCAR-3 ovarian cancer cell cytotoxicity, dose response, PAX8 inhibitor project, plate reader, dry powder samples (AID 743044); assay type: functional, cell-based
[23] = IGROV1 ovarian cancer cell cytotoxicity, dose response, PAX8 inhibitor project, plate reader, dry powder samples (AID 743043); assay type: functional, cell-based; conditions: IGROV-1
[24] = target: Beta-galactosidase (Escherichia coli, UniProt Q8VNN2); test: Dose response counterscreen for EBI2 assay utilizing the enzyme, b-galactosidase.; assay type: functional
[25] = MITF Orthogonal Assay: SK-MEL-5 CTG Assay Measured in Cell-Based System Using Plate Reader - 2084-02_Inhibitor_Dose_DryPowder_Activity_Set7.; assay type: functional
[26] = MITF: Counter assay: A375 proliferation Measured in Cell-Based System Using Plate Reader - 2084-03_Inhibitor_Dose_DryPowder_Activity_Set8.; assay type: functional; conditions: A-375
[27] = TRPM1 promoter luciferase reporter signal decrease, dose response, MITF inhibitor project, cell-based, SK-MEL-5, dry powder, set 8 (AID 624430); assay type: functional
[28] = system: Cryptococcus neoformans; test: PubChem AID 686997; assay type: functional, organism-based
[29] = system: HEK293; test: HEK293T cell cytotoxicity, dose response, cytotoxicity control, ATP luminescence, cherry-pick samples (AID 687005); assay type: functional, cell-based; conditions: Homo sapiens;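 further: cells exposed to compound for 48 hours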
[30] = HEK293 Cytotoxicity Assay Measured in Cell-Based System Using Plate Reader - 7071-01_Inhibitor_Dose_CherryPick_Activity_Set2.; assay type: functional
[31] = HeLa cell cytotoxicity, dose response, cytotoxicity control, CellTiter-Glo luminescence, dry powder, set 2 (AID 720593); assay type: functional, cell-based
[32] = target: T1, Endoribonuclease toxin MazF (Escherichia coli K-12, UniProt P0AE70); test: MazF toxin RNase activators, dose response, biochemical, fluorescence, single-stranded RNA substrate, uHTS hits (AID 588481); assay type: functional
T1 sequence (P0AE70 whole entry): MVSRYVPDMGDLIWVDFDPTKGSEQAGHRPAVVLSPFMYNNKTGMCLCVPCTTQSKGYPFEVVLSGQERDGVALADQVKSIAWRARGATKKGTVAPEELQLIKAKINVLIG

[33] = target: T1, Endoribonuclease toxin MazF; test: fluorescent RNA oligo signal without MazF, dose response, counter-screen for MazEF activator project, biochemical, fluorescence, single-stranded RNase substrate (AID 588502); assay type: functional
[34] = target: Albumin (Bos taurus, UniProt P02769); test: Counterscreen for inhibitors of T-cell receptor (TCR)-CD3 interaction: Fluorescence-based biochemical high throughput dose response assay to identify inhibitors of T-cell receptor (TCR)-CD3 interaction using a TAMRA-labeled BSA probe.; assay type: functional
[35] = Late stage assay provider results from the probe development effort to identify inhibitors of the Plasmodium falciparum M18 Aspartyl Aminopeptidase (M18AAP): radiolabel-based cell-based dose response assay to identify compounds that inhibit P. falciparum growth in RBCs, Set 2..; assay type: functional
[36] = target: T2, Aminopeptidase N (Plasmodium falciparum FcB1/Columbia, UniProt O96935); test: P. falciparum M1AAP inhibitors, biochemical, fluorogenic H-Leu-NHMec substrate, 1536-well (AID 1445); parameters: species or system Plasmodium falciparum 3D7, 3D7
T2 sequence (O96935 whole entry): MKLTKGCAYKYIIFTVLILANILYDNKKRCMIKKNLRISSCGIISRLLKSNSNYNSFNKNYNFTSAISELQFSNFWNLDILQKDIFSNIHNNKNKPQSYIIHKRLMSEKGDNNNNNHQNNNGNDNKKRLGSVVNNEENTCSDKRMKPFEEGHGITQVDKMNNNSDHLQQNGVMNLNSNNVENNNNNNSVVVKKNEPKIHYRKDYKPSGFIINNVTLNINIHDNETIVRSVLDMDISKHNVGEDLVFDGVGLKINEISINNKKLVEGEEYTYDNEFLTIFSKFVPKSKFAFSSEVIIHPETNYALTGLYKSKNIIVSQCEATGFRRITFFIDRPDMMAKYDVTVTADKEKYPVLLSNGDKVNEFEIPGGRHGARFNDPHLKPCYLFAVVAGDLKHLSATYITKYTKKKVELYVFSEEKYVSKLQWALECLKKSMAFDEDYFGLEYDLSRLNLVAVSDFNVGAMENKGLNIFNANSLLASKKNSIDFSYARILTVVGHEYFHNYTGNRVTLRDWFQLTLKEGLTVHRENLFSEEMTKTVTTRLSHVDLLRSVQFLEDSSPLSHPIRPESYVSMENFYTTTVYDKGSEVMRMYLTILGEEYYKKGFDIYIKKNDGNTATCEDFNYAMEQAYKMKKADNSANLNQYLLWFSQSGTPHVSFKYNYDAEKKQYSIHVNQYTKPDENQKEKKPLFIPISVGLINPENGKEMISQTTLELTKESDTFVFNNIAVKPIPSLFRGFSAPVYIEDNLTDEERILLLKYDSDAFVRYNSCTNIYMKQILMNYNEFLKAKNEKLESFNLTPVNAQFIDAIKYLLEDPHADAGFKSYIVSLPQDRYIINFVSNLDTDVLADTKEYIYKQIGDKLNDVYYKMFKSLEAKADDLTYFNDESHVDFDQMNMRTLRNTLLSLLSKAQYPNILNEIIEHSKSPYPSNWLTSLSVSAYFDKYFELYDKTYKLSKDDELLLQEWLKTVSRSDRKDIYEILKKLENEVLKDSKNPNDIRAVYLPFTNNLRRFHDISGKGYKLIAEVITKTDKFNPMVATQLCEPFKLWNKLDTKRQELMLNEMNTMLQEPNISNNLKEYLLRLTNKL

[37] = target: T3, Heat shock factor protein 1 (Mus musculus, UniProt P38532); test: inhibition of MG132-induced HSE-luciferase signal, confirmation, cell-based, NIH3T3, luminescence, dose retest (AID 2382); assay type: functional;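 further: NIH3T3 fibroblasts with HSF1-driven luciferase reporter stressed by proteasome inhibitor MG132; luminescence from HSF1-driven luciferase expression after 8 hours of MG132 stress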
T3 sequence (P38532 whole entry): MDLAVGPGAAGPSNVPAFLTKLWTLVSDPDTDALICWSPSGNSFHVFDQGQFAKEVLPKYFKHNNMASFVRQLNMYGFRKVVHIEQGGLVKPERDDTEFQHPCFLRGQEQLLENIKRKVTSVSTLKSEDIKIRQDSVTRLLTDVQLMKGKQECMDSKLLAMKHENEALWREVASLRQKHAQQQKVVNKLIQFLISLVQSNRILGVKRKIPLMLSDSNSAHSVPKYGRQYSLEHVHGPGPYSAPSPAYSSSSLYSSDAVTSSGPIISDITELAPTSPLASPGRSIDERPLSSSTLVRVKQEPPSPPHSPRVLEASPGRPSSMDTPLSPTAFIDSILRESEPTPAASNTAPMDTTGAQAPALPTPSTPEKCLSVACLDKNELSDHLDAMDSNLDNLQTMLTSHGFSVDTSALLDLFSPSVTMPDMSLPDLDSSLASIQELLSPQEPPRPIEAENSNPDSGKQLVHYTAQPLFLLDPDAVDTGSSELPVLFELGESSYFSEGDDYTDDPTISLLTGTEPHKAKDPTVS

[38] = target: Long-chain-fatty-acid--AMP ligase FadD28 (Mycobacterium tuberculosis, UniProt P9WQ59); test: Fluorescence polarization aasay to screen for inhibitors that compete for the binding of FadD28 to a bisubstrate Measured in Biochemical System Using Plate Reader - 2147-01_Inhibitor_Dose_CherryPick_Activity.; assay type: functional, Mycobacterium tuberculosis H37Rv
Sequence of Long-chain-fatty-acid--AMP ligase FadD28 (P9WQ59 whole entry): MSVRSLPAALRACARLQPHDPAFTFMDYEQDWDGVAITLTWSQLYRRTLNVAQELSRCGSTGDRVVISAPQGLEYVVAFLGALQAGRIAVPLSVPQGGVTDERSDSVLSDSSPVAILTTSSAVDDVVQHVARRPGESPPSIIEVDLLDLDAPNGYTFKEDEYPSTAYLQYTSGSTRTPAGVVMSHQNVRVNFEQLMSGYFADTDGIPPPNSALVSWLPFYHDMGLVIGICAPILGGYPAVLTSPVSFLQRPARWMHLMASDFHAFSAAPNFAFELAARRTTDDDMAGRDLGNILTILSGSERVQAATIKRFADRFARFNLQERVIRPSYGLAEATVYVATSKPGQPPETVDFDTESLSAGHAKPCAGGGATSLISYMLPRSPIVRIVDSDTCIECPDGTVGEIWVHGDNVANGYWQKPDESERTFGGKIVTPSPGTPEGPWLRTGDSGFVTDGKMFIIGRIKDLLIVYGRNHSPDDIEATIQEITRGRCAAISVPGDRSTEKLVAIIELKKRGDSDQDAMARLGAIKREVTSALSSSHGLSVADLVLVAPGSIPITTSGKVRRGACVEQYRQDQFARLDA

Sequence of Nonstructural protein 1 (Q194T2 whole entry): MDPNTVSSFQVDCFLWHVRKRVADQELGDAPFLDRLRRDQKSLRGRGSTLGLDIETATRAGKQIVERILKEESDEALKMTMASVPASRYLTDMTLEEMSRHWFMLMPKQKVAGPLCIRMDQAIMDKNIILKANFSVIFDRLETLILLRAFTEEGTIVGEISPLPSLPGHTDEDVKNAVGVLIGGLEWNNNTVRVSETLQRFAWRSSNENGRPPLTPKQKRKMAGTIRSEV
Sequence of Paired box protein Pax-8 (Q06710 whole entry): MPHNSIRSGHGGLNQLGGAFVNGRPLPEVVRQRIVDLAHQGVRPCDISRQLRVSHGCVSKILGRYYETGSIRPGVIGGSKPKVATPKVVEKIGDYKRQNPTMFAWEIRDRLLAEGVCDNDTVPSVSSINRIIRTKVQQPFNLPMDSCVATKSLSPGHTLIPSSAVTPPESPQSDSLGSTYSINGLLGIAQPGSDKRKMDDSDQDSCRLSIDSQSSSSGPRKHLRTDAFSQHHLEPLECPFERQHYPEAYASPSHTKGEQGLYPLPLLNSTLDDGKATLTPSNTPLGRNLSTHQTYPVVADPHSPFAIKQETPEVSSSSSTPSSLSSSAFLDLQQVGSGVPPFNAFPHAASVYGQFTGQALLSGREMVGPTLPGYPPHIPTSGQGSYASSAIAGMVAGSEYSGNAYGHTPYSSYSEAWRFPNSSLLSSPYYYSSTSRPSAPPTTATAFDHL
Sequence of Fructose-bisphosphate aldolase (P9WQA3 whole entry): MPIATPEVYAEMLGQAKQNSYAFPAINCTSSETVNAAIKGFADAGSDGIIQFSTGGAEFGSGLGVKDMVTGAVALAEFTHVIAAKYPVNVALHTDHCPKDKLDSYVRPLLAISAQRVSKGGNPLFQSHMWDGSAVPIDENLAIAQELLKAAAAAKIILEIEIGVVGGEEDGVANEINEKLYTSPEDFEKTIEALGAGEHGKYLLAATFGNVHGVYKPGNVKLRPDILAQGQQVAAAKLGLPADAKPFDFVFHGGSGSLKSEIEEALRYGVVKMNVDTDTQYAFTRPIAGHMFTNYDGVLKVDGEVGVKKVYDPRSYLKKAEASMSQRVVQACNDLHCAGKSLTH
Sequence of Beta-galactosidase (Q8VNN2 whole entry): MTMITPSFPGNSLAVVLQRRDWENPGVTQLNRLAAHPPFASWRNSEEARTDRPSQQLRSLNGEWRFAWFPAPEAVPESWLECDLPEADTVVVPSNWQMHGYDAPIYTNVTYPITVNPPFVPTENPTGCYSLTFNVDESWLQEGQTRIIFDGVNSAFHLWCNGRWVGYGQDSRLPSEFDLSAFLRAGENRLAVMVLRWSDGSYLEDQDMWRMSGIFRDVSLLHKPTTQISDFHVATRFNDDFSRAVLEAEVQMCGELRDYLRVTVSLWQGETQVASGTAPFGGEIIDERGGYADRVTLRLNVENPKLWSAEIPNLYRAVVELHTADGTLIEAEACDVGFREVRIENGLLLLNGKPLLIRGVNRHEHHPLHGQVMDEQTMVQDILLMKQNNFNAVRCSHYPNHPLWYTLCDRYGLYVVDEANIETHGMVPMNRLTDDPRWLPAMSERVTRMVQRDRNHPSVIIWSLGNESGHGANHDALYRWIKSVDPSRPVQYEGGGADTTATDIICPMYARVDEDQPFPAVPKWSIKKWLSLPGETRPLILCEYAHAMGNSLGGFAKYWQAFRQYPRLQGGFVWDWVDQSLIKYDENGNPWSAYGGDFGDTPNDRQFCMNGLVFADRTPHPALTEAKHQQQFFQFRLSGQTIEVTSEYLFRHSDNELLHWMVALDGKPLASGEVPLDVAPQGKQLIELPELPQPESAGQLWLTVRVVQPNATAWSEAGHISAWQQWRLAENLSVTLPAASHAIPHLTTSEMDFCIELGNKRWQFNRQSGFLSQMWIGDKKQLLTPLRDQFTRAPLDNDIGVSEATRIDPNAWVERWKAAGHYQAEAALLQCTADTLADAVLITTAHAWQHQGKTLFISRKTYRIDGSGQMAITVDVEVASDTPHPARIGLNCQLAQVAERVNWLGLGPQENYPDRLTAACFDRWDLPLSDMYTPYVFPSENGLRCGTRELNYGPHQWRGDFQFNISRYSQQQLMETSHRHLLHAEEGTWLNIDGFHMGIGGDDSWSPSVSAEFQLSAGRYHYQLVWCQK
Sequence of Albumin (P02769 whole entry): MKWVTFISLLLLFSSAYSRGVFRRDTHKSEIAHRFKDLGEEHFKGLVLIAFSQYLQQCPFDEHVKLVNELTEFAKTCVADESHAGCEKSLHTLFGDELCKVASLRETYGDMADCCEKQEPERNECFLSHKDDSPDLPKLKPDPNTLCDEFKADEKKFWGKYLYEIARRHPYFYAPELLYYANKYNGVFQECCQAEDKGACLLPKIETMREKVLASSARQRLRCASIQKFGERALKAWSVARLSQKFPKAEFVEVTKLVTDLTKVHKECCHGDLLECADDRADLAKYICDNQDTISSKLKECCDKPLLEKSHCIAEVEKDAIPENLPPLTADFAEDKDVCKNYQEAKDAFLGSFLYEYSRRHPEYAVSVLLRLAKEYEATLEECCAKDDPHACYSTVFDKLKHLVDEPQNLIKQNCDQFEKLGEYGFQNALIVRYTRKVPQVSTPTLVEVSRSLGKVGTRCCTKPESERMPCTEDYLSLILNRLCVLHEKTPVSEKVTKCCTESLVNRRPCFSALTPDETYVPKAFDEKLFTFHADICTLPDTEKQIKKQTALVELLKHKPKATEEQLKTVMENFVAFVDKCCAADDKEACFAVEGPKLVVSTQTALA

SMILES: Cn1c2ccccc2c(=O)c2ccc(F)cc21
- AC50 [1]: 7.33 µM (active)
- AC50 [2]: > 52 µM (inactive)

SMILES: Cc1nc(-c2ccc(C(=O)Nc3ccc(F)cc3)cc2)cs1
- AC50 [3]: 26 µM (active)

SMILES: CC1(C)CCCN(C(=O)c2ccc3c(c2NCCO)C(=O)c2ccccc2C3=O)C1
- IC50 [4]: 15.2 µM (active)
- IC50 [5]: 17.2 µM (active)
- IC50 [6]: > 122 µM (inactive)

SMILES: Cc1ccc(CNC(=O)c2cc3c(C)nc4ccccc4c3o2)cc1
- AC50 [7]: 2.49 µM (active)
- AC50 [8]: 64.3 µM (active)
- AC50 [9]: 12.2 µM (active)
- AC50 [10]: 4.02 µM (active)

SMILES: COc1ccc(-c2ccc3c(c2)[C@@H]2[C@@H](CCN2C(=O)NC2CCCCC2)[C@@H](CO)N3C)cc1
- AC50 [11]: 14.5 µM (active)
- AC50 [12]: 0.292 µM (active)
- AC50 [13]: 37.8 µM (active)

SMILES: CC1CCN(S(=O)(=O)c2ccc(C(=O)Nc3nnc(-c4ccccc4)o3)cc2)CC1
- AC50 [14]: > 52 µM (inactive)
- AC50 [15]: 2.57 µM (active)
- AC50 [16]: 86.8 µM (active)

SMILES: CN1CCN(C(=O)COc2ccc(-c3nc4ccccc4s3)cc2)CC1
- IC50 [17]: 3.57 µM (active)

SMILES: O=C(OCc1cn([C@H]2CN(C(=O)C3CCCCC3)[C@@H](c3ccccc3)C[C@@H]2O)nn1)c1ccccc1
- AC50 [18]: 20.2 µM (active)
- AC50 [19]: 16.1 µM (active)

SMILES: CCN(CC)CCOc1cccc(C(C)C)c1
- AC50 [20]: 6.91 µM (active)

SMILES: Cc1ccc(S(=O)(=O)Nc2ccc3c(c2)C(=O)N([C@H](C)CO)C[C@@H](C)[C@@H](CN(C)Cc2ccc(C(F)(F)F)cc2)OCCCC[C@@H](C)O3)cc1
- AC50 [11]: 5.57 µM (active)
- AC50 [21]: 53.7 µM (active)
- AC50 [22]: 36 µM (active)
- AC50 [23]: 54.4 µM (active)
- AC50 [13]: 39.6 µM (active)

SMILES: CCOC(=O)C1CCN(C(=O)c2cc3c(s2)-c2ccccc2OC3)CC1
- IC50 [24]: > 80 µM (inactive)

SMILES: CN1CCN(C2=C(Nc3ccc(Br)cc3)C(=O)c3ccccc3C2=O)CC1
- AC50 [25]: 7.8 µM (active)
- AC50 [26]: 27 µM (active)
- AC50 [27]: 5.56 µM (active)

SMILES: COC(=O)C1=C(C)N(CC(C)C)C(=S)NC1c1ccc(F)cc1 (stereo not drawn)
- AC50 [28]: > 84 µM (inactive)
- AC50 [29]: 40.3 µM (active)
- AC50 [30]: 40.3 µM (active)

SMILES: CSc1ccc(-c2nnc(NC(=O)c3ccc(S(=O)(=O)N4CCC(C)CC4)cc3)o2)cc1
- AC50 [14]: > 52 µM (inactive)
- AC50 [15]: 9.24 µM (active)
- AC50 [31]: > 52 µM (inactive)

SMILES: COC(=O)CC1(C(=O)OC)Nc2cc(Cl)c(Cl)cc2S(=O)(=O)N1O (stereo not drawn)
- EC50 [32]: 1.14 µM (active)
- EC50 [33]: > 99 µM (inactive)
- IC50 [34]: > 94.2 µM (inactive)

SMILES: COc1ccc(CNc2c3ccccc3nc3ccccc23)cc1OC
- IC50 [35]: 1.05 µM (active)

SMILES: CCOc1ccc(N2C(=O)/C(=C\NNc3nnc(C)c(O)n3)c3ccccc3C2=O)cc1
- IC50 [36]: 20.9 µM (active)
- EC50 [37]: > 195 µM (not active)
- IC50 [4]: 5.02 µM (active)
- AC50 [38]: 64.9 µM (active)
